Columns and labels:
human orexin-2 receptor = human orexin-2 receptor (Homo sapiens (Human), UniProt O43614); test: FLIPR Ca2+ Flux Assay, orexin-2 receptor; assay type: cell-based; settings: CHO cells expressing the human orexin-2 receptor; agonist 70 pM Ala-6,12 orexin-A; read-out: hOX2R FLIPR IC50
Procedure: In a typical experiment the OX1 and OX2 receptor antagonistic activity of the compounds of the present invention was determined in accordance with the following experimental method. For intracellular calcium measurements, Chinese hamster ovary (CHO) cells expressing the rat orexin-1 receptor or the human orexin-2 receptor, are grown in Iscove's modified DMEM containing 2 mM L-glutamine, […], 1% hypoxanthine-thymidine supplement, 100 U/ml penicillin, 100 μg/ml streptomycin and 10% heat-inactivated fetal calf serum (FCS). The cells are seeded at 20,000 cells/well into Becton-Dickinson black 384-well clear bottom sterile plates coated with poly-D-lysine. All reagents were from GIBCO-Invitrogen Corp. The seeded plates are incubated overnight at 37° C. and 5% CO2. Ala-6,12 human orexin-A as the agonist is prepared as a 1 mM stock solution in 1% bovine serum albumin (BSA) and diluted in assay buffer (HBSS containing 20 mM HEPES, 0.1% BSA and 2.5 mM probenecid, pH7.4) for use in the assay at a final concentration of 70 pM. Test compounds are prepared as 10 mM stock solution in DMSO, then diluted in 384-well plates, first in DMSO, then assay buffer. On the day of the assay, cells are washed 3 times with 100 μl assay buffer and then incubated for 60 min (37° C., 5% CO2) in 60 μl assay buffer containing 1 μM Fluo-4 AM ester, 0.02% pluronic acid, and 1% BSA. The dye loading solution is then aspirated and cells are washed 3 times with 100 μl assay buffer. 30 μl of that same buffer is left in each well. Within the Fluorescent Imaging Plate Reader (FLIPR, Molecular Devices), test compounds are added to the plate in a volume of 25 μl, incubated for 5 min and finally 25 μl of agonist is added. Fluorescence is measured for each well at 1 second intervals for 5 minutes and the height of each fluorescence peak is compared to the height of the fluorescence peak induced by 70 pM Ala-6,12 orexin-A with buffer in place of antagonist. […] Alternatively, compound potency can be assessed by a radioligand binding assay (described in Bergman et. al. Bioorg. Med. Chem. Lett. 2008, 18, 1425-1430) in which the inhibition constant (Ki) is determined in membranes prepared from CHO cells expressing either the OX1 or OX2 receptor. The intrinsic orexin receptor antagonist activity of a compound which may be used in the present invention may be determined by these assays.

hOX1R = hOX1R (Homo sapiens, UniProt O43613); test: FLIPR Ca2+ Flux Assay, orexin-1 receptor; assay type: cell-based; settings: CHO cells expressing orexin-1 receptor; agonist 70 pM Ala-6,12 orexin-A

Sequence of human orexin-2 receptor (O43614 whole entry): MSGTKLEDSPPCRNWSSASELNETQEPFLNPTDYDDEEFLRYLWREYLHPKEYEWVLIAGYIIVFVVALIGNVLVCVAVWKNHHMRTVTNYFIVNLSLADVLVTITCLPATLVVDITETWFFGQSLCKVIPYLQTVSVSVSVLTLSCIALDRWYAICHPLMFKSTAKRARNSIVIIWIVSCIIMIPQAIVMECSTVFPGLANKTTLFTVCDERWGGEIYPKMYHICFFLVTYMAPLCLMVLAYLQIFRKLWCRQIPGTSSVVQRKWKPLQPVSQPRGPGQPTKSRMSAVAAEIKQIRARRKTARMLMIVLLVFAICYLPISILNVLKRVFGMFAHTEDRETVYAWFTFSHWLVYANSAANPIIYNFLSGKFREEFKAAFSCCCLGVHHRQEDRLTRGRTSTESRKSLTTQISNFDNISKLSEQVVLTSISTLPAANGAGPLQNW

`CCN(CCc1ccnc(C(C)(C)O)c1)C(=O)c1ccccc1-n1nccn1` [Example 37, N-Ethyl-N-{2-[2-(1-hydroxy-1-methylethyl)pyridin-4-yl]ethyl}-2-(2H-1,2,3-triazol-2-yl)benzamide] was tested, and the IC50 (human orexin-2 receptor) was 124 nM and the IC50 (hOX1R) was > 10000 nM.

In the case of `CCN(CCc1cccc(C(C)(C)O)n1)C(=O)c1ccccc1-n1cccn1` [Example 12, N-ethyl-N-{2-[6-(1-hydroxy-1-methylethyl)pyridin-2-yl]ethyl}-2-(1H-pyrazol-1-yl)benzamide], the IC50 (human orexin-2 receptor) is reported as 66 nM and the IC50 (hOX1R) is reported as > 10000 nM.

In the case of `CCOc1ncccc1C(=O)N(CC)CCc1cccc(C(C)(C)O)n1` [Example 6, 2-ethoxy-N-ethyl-N-{2-[6-(1-hydroxy-1-methylethyl)pyridin-2-yl]ethyl}pyridine-3-carboxamide], the IC50 (human orexin-2 receptor) is reported as 206 nM and the IC50 (hOX1R) is reported as > 10000 nM.

In the case of `CCN(CCc1ccc(C(C)(C)O)cn1)C(=O)c1ccccc1CC(F)(F)F` [Example 54, N-ethyl-N-{2-[5-(1-hydroxy-1-methylethyl)pyridin-2-yl]ethyl}-2-(2,2,2-trifluoroethyl)benzamide], the IC50 (human orexin-2 receptor) is reported as 440 nM and the IC50 (hOX1R) is reported as > 10000 nM.

`CCN(CCc1ccc(C(C)(C)O)cn1)C(=O)c1ccccc1OC(F)(F)F` [Example 50, N-ethyl-N-{2-[5-(1-hydroxy-1-methylethyl)pyridin-2-yl]ethyl}-2-(trifluoromethoxy)benzamide] was tested, and the IC50 (human orexin-2 receptor) was 239 nM and the IC50 (hOX1R) was > 10000 nM.

`CCOc1ccccc1C(=O)N(CC)CCc1cccc(C(C)(C)O)n1` [Example 11, 2-ethoxy-N-ethyl-N-{2-[6-(1-hydroxy-1-methylethyl)pyridin-2-yl]ethyl}benzamide] was tested, and the IC50 (human orexin-2 receptor) was 76 nM and the IC50 (hOX1R) was > 10000 nM.

For `CCN(CCc1ccc(C(C)(C)O)cn1)C(=O)c1cccnc1OCC(F)(F)F` [Example 56, N-ethyl-N-{2-[5-(1-hydroxy-1-methylethyl)pyridin-2-yl]ethyl}-2-(2,2,2-trifluoroethoxy)pyridine-3-carboxamide], the IC50 (human orexin-2 receptor) was 430 nM and the IC50 (hOX1R) was > 10000 nM.

For `CCN(CCc1cccc(C(C)(C)O)n1)C(=O)c1cccnc1OC(C)C` [Example 5, N-Ethyl-N-{2-[6-(1-hydroxy-1-methylethyl)pyridin-2-yl]ethyl}-2-(1-methylethoxy)pyridine-3-carboxamide], the IC50 (human orexin-2 receptor) was 133 nM and the IC50 (hOX1R) was > 10000 nM.

With `CCN(CCc1cccc(C(C)(C)O)n1)C(=O)c1ccccc1N1CCCC1` [Example 28, N-ethyl-N-(2-(6-(2-hydroxypropan-2-yl)pyridin-2-yl)ethyl)-2-(pyrrolidin-1-yl)benzamide] the IC50 (human orexin-2 receptor) was 88 nM and the IC50 (hOX1R) was > 10000 nM.

In the case of `CCN(CCc1ccc(C(C)(C)O)cn1)C(=O)c1cccnc1-n1cccn1` [Example 49, N-Ethyl-N-{2-[5-(1-hydroxy-1-methylethyl)pyridin-2-yl]ethyl}-2-(1H-pyrazol-1-yl)pyridine-3-carboxamide], the IC50 (human orexin-2 receptor) is reported as 252 nM and the IC50 (hOX1R) is reported as > 10000 nM.

`CCN(CCc1cccc(C(C)(C)O)n1)C(=O)c1ccccc1CC(F)(F)F` [Example 18, N-ethyl-N-(2-(6-(2-hydroxypropan-2-yl)pyridin-2-yl)ethyl)-2-(2,2,2-trifluoroethyl)benzamide] was tested, and the IC50 (hOX1R) was > 10000 nM.

`CCCc1ccccc1C(=O)N(CC)CCc1ccc(C(C)(C)O)cn1` [Example 52, N-ethyl-N-{2-[5-(1-hydroxy-1-methylethyl)pyridin-2-yl]ethyl}-2-propylbenzamide] was tested, and the IC50 (hOX1R) was > 10000 nM.

For `CCN(CCc1cccc(C(C)(C)O)n1)C(=O)c1ccccc1-n1nccn1` [Example 4, N-Ethyl-N-{2-[6-(1-hydroxy-1-methylethyl)pyridin-2-yl]ethyl}-2-(2H-1,2,3-triazol-2-yl)benzamide], the IC50 (human orexin-2 receptor) was 15 nM.

`CCN(CCc1cccc(C(C)(C)O)n1)C(=O)c1ccccc1C1CCC1` [Example 25, 2-cyclobutyl-N-ethyl-N-(2-(6-(2-hydroxypropan-2-yl)pyridin-2-yl)ethyl)benzamide] was tested, and the IC50 (human orexin-2 receptor) was 34 nM.

`CCN(CCc1cccc(C(C)(C)O)n1)C(=O)c1ccc(OC)nc1C1CC1` [Example 19, 2-cyclopropyl-N-ethyl-N-(2-(6-(2-hydroxypropan-2-yl)pyridin-2-yl)ethyl)-6-methoxynicotinamide] gave an IC50 (human orexin-2 receptor) of 16 nM.

Reference: patent US10239838B2, “Heteroaryl orexin receptor antagonists” (Merck Sharp & Dohme Corp., priority 2014, dated 2019)
